Results reported in patent US20200164006A1, “METHODS AND COMPOSITIONS OF INCORPORATING A BIOACTIVE AGENT AND USE THEREOF” (INNOVANUTRA INC., priority 2017, published 2020).

How the values were obtained:
[1] = Incorporation of quercetin in microbial carriers, extraction and absorbance at 388 nm (incorporation yield and efficiency); format: physicochemical; settings: cell incorporation process
Procedure: The phrases “loading efficiency” or “incorporation efficiency” interchangeably refer to the incorporation efficiency on both wet basis determined as follows: IE(%)=CE/CT×100, where CE is the mass of extracted bioactive from the lipid membrane microcapsules after incorporation on a wet basis and CT is the amount of bioactive initially added to the lipid membrane microcapsules. A standard calibration curve was spectrophotometrically obtained for quercetin (QU995 is the food-grade form of quercetin) in dimethyl sulfoxide (DMSO). Incorporation of quercetin in yeast cells with ethanol-buffer mixture was achieved by a non-thermal, vacuum infusion method. Inactivated food-grade yeast cells were used to incorporate quercetin with an initial aim of achieving an incorporation yield or loading percent of 0.5%. The dry yeast cells were first washed with deionized water and an ethanol solution. The washed cells were weighed for use as control (without quercetin) and sample (with quercetin). The incorporation was done in high vacuum conditions and the control and sample were incubated in the dark. […] A 500 μL of supernatant was removed and measured absorbance at 388 nm. […] The problem encountered in a quadruple infusion was crystallization of quercetin around carriers, instead of being incorporated (determined by a multiphoton fluorescence imaging). […]

[2] = pH stability for quercetin in yeast, in L. casei and unincorporated quercetin; format: physicochemical; settings: pH 3, 4, 5, 6 over time; extraction at every time point
Procedure: A comparative pH test at different pH's (3, 4, 5, 6) was done with quercetin incorporated in yeast, in L. casei and un-incorporated quercetin. At every time point, an extraction was done to spectrophotometrically determine the amount of quercetin retained. […] The percent retention is calculated by dividing the absorbance value at each time point with the absorbance value at the initial t=0.

amount of quercetin that can efficiently incorporate into the cells [1]: 12.517 mg/g | pH stability (amount of quercetin retained) [2]: rapid degradation over time
Compound: O=c1c(O)c(-c2ccc(O)c(O)c2)oc2cc(O)cc(O)c12 [quercetin]
